Test results from patent US20240415852A1, “ORAL CODELIVERY OF NAVITOCLAX AND Bcl2 siRNA TREATING GASTIC CANCER” (Board of Regents, The University of Texas System, priority 2023, published 2024).

Key:
[1] = tested on: adenocarcinoma gastric cell line (AGS); assay: Cytotoxicity / cell viability, MTT assay; assay type: cell-based; details: human, 24 h
Procedure: The cytotoxicity of the nanoparticle formulation was studied using adenocarcinoma gastric cell line (AGS). Cells were grown in F-12K media supplemented with 20% fetal bovine serum at 5% CO2 humidified atmosphere. Cells were harvested using trypsin and 1×10^4 cells with 100 μL of serum free media per well was plated in 96-well plate and incubated for 24 and 48 h. At end of time interval, media was removed and known concentrations of samples 1×PBS, Navi, GADA/Navi, GADA/Navi/Bcl2 siRNA, GADA/Bcl2 siRNA, Navi/Bcl2 siRNA, (Navi 10, 20, 30, 40, and 50 μM and Bcl2 siRNA 20, 40, 60, 80, and 100 nM) and GADA were added to the cells. The plate was then incubated for 24 h and 48 h. Cell viability was measured using MTT cell proliferation assay kit according to manufacturer's instruction. The absorbance of MTT was measured by using a SYNERGY H1 microplate reader (BioTek) at a wavelength of 570 nm and subtracted the background absorbance recorded at 630 nm.
The mitochondrial enzymes are responsible for reducing the tetrazolium salt (MTT) into purple formazan crystals which is indicator of cell viability/cytotoxicity. The therapeutic effect of formulations was carried out by quantifying the cell viability using MTT assay. […]

platelet = details: reported in literature; cited from earlier work

CC1(C)CCC(c2ccc(Cl)cc2)=C(CN2CCN(c3ccc(C(=O)NS(=O)(=O)c4ccc(N[C@H](CCN5CCOCC5)CSc5ccccc5)c(S(=O)(=O)C(F)(F)F)c4)cc3)CC2)C1 [Navitoclax]
Cell viability [1]: 65.2±5.32%
Platelet apoptosis, thrombocytopenia (platelet): induced platelet apoptosis, resulting in severe thrombocytopenia
